The text below walks through data of patent US8461145B2 (priority 2007, dated 2013).

The target in the assay is Human TRPA1 (Homo sapiens, UniProt O75762). In words: cell-based. The following applies: for EC50: pEC50 values for TRPA1 agonism.

The term EC50 denotes the concentration at which the effect is half-maximal. Read a high EC50 as a less potent agent.

Chain of Human TRPA1 (O75762 whole entry, looked up): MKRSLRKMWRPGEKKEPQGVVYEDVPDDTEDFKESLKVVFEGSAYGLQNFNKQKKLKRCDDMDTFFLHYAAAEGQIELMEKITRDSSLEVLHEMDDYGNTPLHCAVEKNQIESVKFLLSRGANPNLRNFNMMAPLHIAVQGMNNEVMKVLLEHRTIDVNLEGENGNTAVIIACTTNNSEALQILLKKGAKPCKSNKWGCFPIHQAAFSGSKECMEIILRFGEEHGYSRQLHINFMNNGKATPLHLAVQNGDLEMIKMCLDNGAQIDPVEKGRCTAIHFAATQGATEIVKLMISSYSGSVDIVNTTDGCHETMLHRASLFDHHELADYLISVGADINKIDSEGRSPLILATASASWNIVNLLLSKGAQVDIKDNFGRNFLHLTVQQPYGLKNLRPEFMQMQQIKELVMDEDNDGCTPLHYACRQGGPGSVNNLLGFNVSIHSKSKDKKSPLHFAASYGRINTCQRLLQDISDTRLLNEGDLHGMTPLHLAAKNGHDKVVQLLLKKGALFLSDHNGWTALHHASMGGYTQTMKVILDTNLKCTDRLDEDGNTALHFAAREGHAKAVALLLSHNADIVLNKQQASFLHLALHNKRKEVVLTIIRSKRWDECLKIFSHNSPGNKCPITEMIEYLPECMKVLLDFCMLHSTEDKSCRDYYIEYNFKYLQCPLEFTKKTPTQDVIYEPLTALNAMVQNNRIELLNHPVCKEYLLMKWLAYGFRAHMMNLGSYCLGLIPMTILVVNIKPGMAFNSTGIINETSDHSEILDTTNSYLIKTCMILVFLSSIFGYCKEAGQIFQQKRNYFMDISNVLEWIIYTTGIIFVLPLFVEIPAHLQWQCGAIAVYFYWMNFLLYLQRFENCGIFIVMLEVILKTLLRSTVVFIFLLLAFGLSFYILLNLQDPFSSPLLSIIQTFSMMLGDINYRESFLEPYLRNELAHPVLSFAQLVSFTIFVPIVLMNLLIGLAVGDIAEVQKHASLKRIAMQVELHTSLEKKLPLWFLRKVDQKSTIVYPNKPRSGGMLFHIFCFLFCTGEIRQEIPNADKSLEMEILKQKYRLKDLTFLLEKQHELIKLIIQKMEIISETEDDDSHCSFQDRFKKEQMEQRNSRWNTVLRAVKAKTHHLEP

`O=C(O)c1cccc2c1Cc1ccccc1N=C2` [Compound 4] had an EC50 of 363 nM. That is a sub-micromolar value.

With `COC(=O)c1ccc2c(c1)Cc1ccccc1C=N2` [Compound 3], the “pEC50 values for TRPA1 agonism” value is reported as 9.24.

For the molecule `COCCCNC(=O)c1cccc2c1Cc1ccccc1N=C2` [Compound 6], the response was half-maximal at 8.71 nM (EC50).

`COC(=O)c1ccc2c(c1)Oc1ccccc1N=C2` [Compound 10]: the “pEC50 values for TRPA1 agonism” value was 7.28.

Molecule `COC(=O)c1ccc2c(c1)N=Cc1ccccc1C2` [Compound 20] showed an EC50 of 28.2 nM.

`COC(=O)c1ccc2c(c1)C=Nc1ccccc1C2` [Compound 1]: the concentration for a half-maximal effect (EC50) was 93.3 nM.

Molecule `CN1CCN(C(=O)c2ccc3c(c2)Cc2ccccc2C=N3)CC1` [Compound 8] gave an EC50 of 3.16 nM.

On to `COC(=O)c1cccc2c1Cc1ccccc1C=N2` [Compound 17], for which the “pEC50 values for TRPA1 agonism” value amounted to 9.24.

`COC(=O)c1cccc2c1Cc1ccccc1C=N2` [Compound 25]: the EC50 was 0.447 nM. This counts as sub-nanomolar.

Turning to `COC(=O)c1cccc2c1N=Cc1ccccc1C2` [Compound 26], the half-maximal effective concentration (EC50) is 38 nM.

For the molecule `COC(=O)c1cccc2c1Oc1ccccc1N=C2` [Compound 11], the EC50 was 0.0813 nM.

Regarding `CCCCOC(=O)c1cccc2c1Cc1ccccc1N=C2` [Compound 13], the “pEC50 values for TRPA1 agonism” value was 8.07.

In turn, `COC(=O)c1cccc2c1C=Nc1ccccc1C2` [Compound 19] showed an EC50 of 28.8 nM.

`COCCCNC(=O)c1cccc2c1Cc1ccccc1N=C2` [Compound 7] showed an EC50 of 5.89 nM.

`CN1CCN(C(=O)c2ccc3c(c2)Cc2ccccc2N=C3)CC1` [Compound 15] gave an EC50 of 1620 nM.

On to `COC(=O)c1cccc2c1N=Cc1ccccc1C2` [Compound 18], for which it took 27.5 nM to reach a half-maximal effect (EC50). Compared with the last molecule, the EC50 is about 59-fold lower.

Consider `NC(=O)c1cccc2c1Oc1ccccc1N=C2` [Compound 21], for which the “pEC50 values for TRPA1 agonism” value was found to be 10.12.

The molecule `CCN(CC)C(=O)c1cccc2c1Cc1ccccc1N=C2` [Compound 5] showed an EC50 of 44.7 nM.

In turn, `COC(=O)c1cccc2c1Oc1ccccc1C=N2` [Compound 24] had a concentration for a half-maximal effect (EC50) of 0.0741 nM.

As for `COC(=O)c1cccc2c1Oc1ccccc1C=N2` [Compound 23], the “pEC50 values for TRPA1 agonism” value is on record as 9.93.

In turn, `CCCCOC(=O)c1cccc2c1Cc1ccccc1N=C2` [Compound 14] showed an EC50 of 5.62 nM.

Turning to `COC(=O)c1cccc2c1Oc1ccccc1N=C2` [Compound 12], the “pEC50 values for TRPA1 agonism” value stood at 10.22.
